The subject of this assay is HCV 1b genotype replicon. The assay can be described thus: HCV replicon drug screening assay (quantitative RT-PCR or luciferase), genotype 1b. Type of assay: cell-based. To be noted: Hepatitis C virus; HCV 1b genotype replicon; quantitative RT-PCR or luciferase assay; read-out: Genotype-1b replicon EC50 Range. The text has this:
HCV replicon cell lines (kindly provided by R. Bartenschlager) isolated from colonies as described by Lohman et. al. (Lohman et al. (1999) Science 285: 110-113, expressly incorporated by reference in its entirety) and used for all experiments. The HCV replicon has the nucleic acid sequence set forth in EMBL Accession No.: AJ242651, the coding sequence of which is from nucleotides 1801 to 8406.
The coding sequence of the published HCV replicon was synthesized and subsequently assembled in a modified plasmid pBR322 (Promega, Madison, Wis.) using standard molecular biology techniques. One replicon cell line (“SGR 11-7”) stably expresses HCV replicon RNA which consists of (i) the HCV 5′UTR fused to the first 12 amino acids of the capsid protein, (ii) the neomycin phosphotransferase gene (neo), (iii) the IRES from encephalomyocarditis virus (EMCV), and (iv) HCV NS2 to NS5B genes and the HCV 3′UTR. Another replicon cell line (“Huh-luc/neo-ET”) described by Vrolijk et. al. (Vrolijk et. al. (2003) Journal of Virological Methods 110:201-209, expressly incorporated by reference in its entirety) stably expresses HCV replicon RNA which consists of (i) the HCV 5′UTR fused to the first 12 amino acids of the capsid protein, (ii) the firefly luciferase reporter gene, (iii) the ubiquitin gene, (iv) the neomycin phosphotransferase gene (neo), (v) the IRES from encephalomyocarditis virus (EMCV), and (vi) HCV NS3 to NS5B genes that harbor cell culture adaptive mutations (E1202G, T12801, K1846T) and the HCV 3′UTR.
These cell lines are maintained at 37° C., 5% CO2, 100% relative humidity in DMEM (Cat#11965-084, Invitrogen), with 10% fetal calf serum (“FCS”, Invitrogen), 1% non-essential amino acids (Invitrogen), 1% of Glutamax (Invitrogen), 1% of 100× penicillin/streptomycin (Cat#15140-122, Invitrogen) and Geneticin (Cat#10131-027, Invitrogen) at 0.75 mg/ml or 0.5 mg/ml for 11-7 and Huh-luc/neo-ET cells, respectively.
EC50 values of single agent compounds and combinations were determined by HCV RNA detection using quantitative RT-PCR, according to the manufacturer's instructions, with a TAQMAN® One-Step RT-PCR Master Mix Reagents Kit (Cat#AB 4309169, Applied Biosystems) on an ABI Model 7500 thermocycler. The TaqMan primers to use for detecting and quantifying HCV RNA are 5′-GCTGCGGCCTGTCGAGCT-3′ (SEQ ID NO: 1), 5′-CAAGGTCGTCTCCGCATAC-3′ (SEQ ID NO: 2) and the probe 5′-FAM-[…]-BHQ-3′ (SEQ ID NO: 3) obtained from Integrated DNA Technologies. HCV RNA is normalized to GAPDH RNA levels in drug-treated cells, which is detected and quantified using the Human GAPDH Endogenous Control Mix (Applied Biosystems, AB 4310884E). Total cellular RNA is purified from 96-well plates using the RNAqueous 96 kit (Ambion, Cat#AM1812). Chemical agent cytotoxicity was evaluated using an MTS assay according to the manufacturer's directions (Promega).
The compounds described herein can be effective against the HCV 1b genotype. It should also be understood that the compounds can inhibit multiple genotypes of HCV. In one embodiment, compounds of Formula (I) are active against the 1a, 1b, 2a, 2b, 3a, 4a, and 5a genotypes. […] The EC50 ranges were classified into the following groups: A>10 nM; B 1-10 nM; C<1 nM. The potential cytotoxicities of each agent were analyzed in parallel by MTS assay and are greater than 3 uM for all agents.

The structures appear in SMILES notation.

We go through 30 compounds from patent publication US9060971B2, “Combination pharmaceutical agents as inhibitors of HCV replication” (Enanta Pharmaceuticals, Inc., priority 2010, dated 2015).

Regarding `COC(=O)N[C@H](C(=O)N1CCC[C@H]1c1ncc(-c2ccc([C@@H]3C[C@H]3c3ccc4nc([C@@H]5CCCN5C(=O)[C@@H](NC(=O)OC)C(C)C)[nH]c4c3)cc2)[nH]1)C(C)C` [Compound 73], the EC50 (usually the concentration giving half of the maximal effect) was less than 1 nM.
As for `COC(=O)N[C@H](C(=O)N1CCC[C@H]1c1nc(-c2ccc(C#Cc3ccc4[nH]c([C@@H]5[C@H]6CC[C@H](C6)N5C(=O)[C@@H](NC(=O)OC)C(C)C)nc4c3)cc2)c[nH]1)C(C)C` [Compound 123], the EC50 is less than 1 nM.
Next, `COC(=O)N[C@H](C(=O)N1CCC[C@H]1c1nc(-c2ccc(C#Cc3ccc4[nH]c([C@@H]5CCCN5C(=O)[C@H](NC(=O)OC)C(C)C)nc4c3)cc2)c[nH]1)C(C)C` [Compound 83]: less than 1 nM; `COC(=O)N[C@H](C(=O)N1CCC[C@H]1c1nc2cc(-c3ccc4cc(-c5ccc6[nH]c([C@@H]7CCCN7C(=O)[C@@H](NC(=O)OC)C(C)C)nc6c5)ccc4c3)ccc2[nH]1)C(C)C` [Compound 20]: less than 1 nM; `COC(=O)N[C@H](C(=O)N1CCC[C@H]1c1nc(-c2ccc(-c3ccc(-c4ccc5[nH]c([C@@H]6[C@H]7CC[C@H](C7)N6C(=O)[C@@H](NC(=O)OC)C(C)C)nc5c4)cc3)cc2)c[nH]1)C(C)C` [Compound 124]: less than 1 nM.
Regarding `CC(C)[C@H](Nc1ncccn1)C(=O)N1CCC[C@H]1c1nc2cc(-c3ccc(-c4ccc5[nH]c([C@@H]6CCCN6C(=O)[C@@H](Nc6ncccn6)C(C)C)nc5c4)cc3)ccc2[nH]1` [Compound 19], the EC50 is less than 1 nM.
With `C=C1C[C@@H](c2nc(-c3ccc(C#Cc4ccc5[nH]c([C@@H]6CCCN6C(=O)[C@@H](NC(=O)OC)C(C)C)nc5c4)cc3)c[nH]2)N(C(=O)[C@@H](NC(=O)OC)C(C)C)C1` [Compound 118], the EC50 was less than 1 nM.
With `COC(=O)N[C@H](C(=O)N1CCC[C@H]1c1nc(-c2ccc(C#Cc3ccc4[nH]c([C@@H]5CC(F)(F)CN5C(=O)[C@@H](NC(=O)OC)C(C)C)nc4c3)cc2)c[nH]1)C(C)C` [Compound 92] the figure was less than 1 nM; with `COC(=O)N[C@H](C(=O)N1CCC[C@H]1c1nc(-c2ccc(C#Cc3ccc4[nH]c([C@@H]5CC(=O)CN5C(=O)[C@@H](NC(=O)OC)C(C)C)nc4c3)cc2)c[nH]1)C(C)C` [Compound 66], less than 1 nM.
With `COC(=O)N[C@H](C(=O)N1CCC[C@H]1c1nc2cc(C#Cc3ccc(-c4c[nH]c(C5[C@H]6CC[C@H](C6)N5C(=O)[C@@H](NC(=O)OC)C(C)C)n4)cc3)ccc2[nH]1)C(C)C` (stereo partly drawn) [Compound 122], the EC50 is less than 1 nM.
Next, `COC(=O)N[C@@H](C)C(=O)N1CCC[C@H]1c1nc2cc(C#Cc3ccc(-c4c[nH]c([C@@H]5CCCN5C(=O)[C@@H](NC(=O)OC)C(C)C)n4)cc3)ccc2[nH]1` [Compound 76]: less than 1 nM; `COC(=O)N[C@H](C(=O)N1CCC[C@H]1c1nc(-c2ccc(C#Cc3ccc4[nH]c([C@@H]5CCCN5C(=O)[C@@H](NC(C)=O)C(C)C)nc4c3)cc2)c[nH]1)C(C)C` [Compound 81]: less than 1 nM; `COC(=O)N[C@H](C(=O)N1CCC[C@H]1c1ncc(-c2ccc(C#Cc3ccc4nc([C@@H]5C[C@H](F)CN5C(=O)[C@@H](NC(=O)OC)C(C)C)[nH]c4c3)cc2)[nH]1)C(C)C` [Compound 109]: less than 1 nM.
Next, `COC(=O)N[C@H](C(=O)N1CCC[C@H]1c1nc(-c2ccc3cc(-c4ccc5[nH]c([C@@H]6CCCN6C(=O)[C@@H](NC(=O)OC)C(C)C)nc5c4)ccc3c2)c[nH]1)C(C)C` [Compound 48]: less than 1 nM; `COC(=O)N[C@H](C(=O)N1CCC[C@H]1c1nc(-c2ccc(C#Cc3ccc4[nH]c([C@@H]5CCCN5C(=O)[C@@H](NC(=O)OC)[C@@H](C)OC)nc4c3)cc2)c[nH]1)[C@@H](C)OC` [Compound 59]: less than 1 nM; `COC(=O)N[C@H](C(=O)N1CCC[C@H]1c1nc2cc(-c3ccc(-c4ccc5[nH]c([C@@H]6CCCN6C(=O)[C@@H](NC(=O)OC)C6CCCC6)nc5c4)cc3)ccc2[nH]1)C1CCCC1` [Compound 24]: less than 1 nM.
With `COC(=O)N[C@H](C(=O)N1CCC[C@H]1c1nc(-c2ccc(C#Cc3ccc4[nH]c([C@@H]5CCCN5C(=O)[C@@H](NC(=O)OC)C(C)C)nc4n3)cc2)c[nH]1)C(C)C` [Compound 113] the figure was less than 1 nM.
Consider `COC(=O)N[C@H](C(=O)N1CCC[C@H]1c1nc(-c2ccc3cc(-c4ccc5[nH]c([C@@H]6CCCN6C(=O)[C@@H](NC(=O)OC)[C@@H](C)OC)nc5c4)ccc3c2)c[nH]1)[C@@H](C)OC` [Compound 49], for which the EC50 was less than 1 nM.
Consider `COC(=O)N[C@H](C(=O)N1CCC[C@H]1c1nc(-c2ccc(C#Cc3ccc4[nH]c([C@@H]5CCCN5C(=O)[C@@H](c5ccccc5)C(C)C)nc4c3)cc2)c[nH]1)C(C)C` [Compound 82], for which the EC50 is less than 1 nM.
As for `CC[C@H](C)[C@H](NC(=O)OC)C(=O)N1CCC[C@H]1c1nc2cc(-c3ccc4cc(-c5c[nH]c([C@@H]6CCCN6C(=O)[C@@H](NC(=O)OC)[C@@H](C)OC)n5)ccc4c3)ccc2[nH]1` [Compound 54], the EC50 is less than 1 nM.
Next, `COC(=O)N[C@@H](CC(C)C)C(=O)N1CCC[C@H]1c1nc2cc(-c3ccc(-c4ccc5[nH]c([C@@H]6CCCN6C(=O)[C@H](CC(C)C)NC(=O)OC)nc5c4)cc3)ccc2[nH]1` [Compound 25]: less than 1 nM; `COC(=O)N[C@H](C(=O)N1CCC[C@H]1c1nc(-c2ccc(C#Cc3cc4nc([C@@H]5CCCN5C(=O)[C@@H](NC(=O)OC)C(C)C)[nH]c4cc3Cl)cc2)c[nH]1)C(C)C` [Compound 65]: less than 1 nM; `CC[C@H](NC(=O)OC)C(=O)N1CCC[C@H]1c1nc2cc(C#Cc3ccc(-c4c[nH]c([C@@H]5CCCN5C(=O)[C@@H](NC(=O)OC)C(C)C)n4)cc3)ccc2[nH]1` [Compound 77]: less than 1 nM.
Next, `COC(=O)N[C@H](C(=O)N1CCC[C@H]1c1nc(-c2ccc(/C=C/c3ccc4[nH]c([C@@H]5CCCN5C(=O)[C@@H](NC(=O)OC)C(C)C)nc4c3)cc2)c[nH]1)C(C)C` [Compound 69]: less than 1 nM; `COC(=O)N[C@H](C(=O)N1CCC[C@H]1c1ncc(-c2ccc(CCCc3ccc4[nH]c([C@@H]5CCCN5C(=O)[C@@H](NC(=O)OC)C(C)C)nc4c3)cc2)[nH]1)C(C)C` [Compound 43]: less than 1 nM.
On to `COC(=O)N[C@@H](C(=O)N1CCC[C@H]1c1nc2cc(CCCCc3ccc4[nH]c([C@@H]5CCCN5C(=O)[C@H](NC(=O)OC)c5ccccc5)nc4c3)ccc2[nH]1)c1ccccc1` [Compound 29], for which the EC50 is less than 1 nM.
Next, `COC(=O)N[C@H](C(=O)N1CCC[C@H]1c1nc2cc(C#Cc3ccc(-c4c[nH]c([C@@H]5CCCN5C(=O)[C@@H](NC(=O)OC)C(C)C)n4)cc3)ccc2[nH]1)c1ccccc1` [Compound 84]: less than 1 nM; `COC(=O)N[C@H](C(=O)N1CCC[C@H]1c1nc(CCc2ccc3cc(-c4ccc5[nH]c([C@@H]6CCCN6C(=O)[C@@H](NC(=O)OC)C(C)C)nc5c4)ccc3c2)c[nH]1)C(C)C` [Compound 58]: less than 1 nM; `COC(=O)N[C@H](C(=O)N1CCC[C@H]1c1nc(-c2ccc(C#Cc3ccc4[nH]c([C@@H]5CCCN5C(=O)[C@@H](NC(=O)OC)C(C)C)nc4c3)cc2)c[nH]1)c1ccccc1` [Compound 89]: less than 1 nM.
Next, `CCOC(=O)N[C@H](C(=O)N1CCC[C@H]1c1nc2cc(C#Cc3ccc(-c4c[nH]c([C@@H]5CCCN5C(=O)[C@@H](NC(=O)OC)C(C)C)n4)cc3)ccc2[nH]1)C(C)C` [Compound 63]: less than 1 nM.
